# Patent publication EP1090023B1 (GLAXO GROUP LIMITED, priority 1998, dated 1999)
# Legend:
# Format in all cases: cell-based
# adenosine 2a = adenosine 2a (Homo sapiens, UniProt P29274); test: Agonist activity against adenosine receptor subtypes, CHO cells with cAMP response element/SPAP reporter (basal cAMP); details: ratio to EC50 of NECA; transfected CHO cells; effect on basal cAMP via SPAP
# Method: (§1) Compounds of the invention were tested for in vitro and in vivo biological activity in accordance with the following screens: • (1) Agonist activity against adenosine 2a, adenosine 1 and adenosine 3 receptor subtypes.
# (§2) Agonist selectivity of compounds against other human adenosine receptors was determined using Chinese hamster ovary (CHO) cells transfected with the gene for the relevant human adenosine receptor following a method based on that of Castanon and Spevak, 1994 . The CHO cells were also transfected with cyclic AMP response elements promoting the gene for secreted placental alkaline phosphatase (SPAP) (Wood, 1995). The effect of test compounds was determined by their effects on basal levels of cAMP (A2a) or on forskolin-enhanced cAMP (A1 and A3) as reflected by changes in levels of SPAP. EC50 values for compounds were then determined as a ratio to that of the non-selective agonist N-ethyl carboxamide adenosine (NECA).
# adenosine 3 = target: T1, adenosine 3 (Homo sapiens, UniProt P0DMS8); test: Agonist activity against adenosine receptor subtypes, CHO cells with cAMP response element/SPAP reporter (forskolin-enhanced cAMP); details: ratio to EC50 of NECA; transfected CHO cells; effect on forskolin-enhanced cAMP via SPAP
# T1 sequence (P0DMS8 1-318): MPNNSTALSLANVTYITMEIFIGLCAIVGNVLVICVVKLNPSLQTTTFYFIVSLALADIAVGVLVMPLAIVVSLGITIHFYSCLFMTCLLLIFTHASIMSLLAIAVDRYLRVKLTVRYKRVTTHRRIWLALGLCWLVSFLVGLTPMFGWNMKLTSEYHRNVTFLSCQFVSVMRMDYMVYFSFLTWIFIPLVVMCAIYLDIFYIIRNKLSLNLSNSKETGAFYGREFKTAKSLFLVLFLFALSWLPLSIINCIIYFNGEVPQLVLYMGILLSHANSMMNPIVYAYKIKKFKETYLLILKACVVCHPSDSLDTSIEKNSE
# Method: as §1, §2
# adenosine 1 = target: T2, adenosine 1 (Homo sapiens, UniProt P30542); test: as above; details: ratio to EC50 of NECA; transfected CHO cells; effect on forskolin-enhanced cAMP via SPAP
# T2 sequence (P30542 1-326): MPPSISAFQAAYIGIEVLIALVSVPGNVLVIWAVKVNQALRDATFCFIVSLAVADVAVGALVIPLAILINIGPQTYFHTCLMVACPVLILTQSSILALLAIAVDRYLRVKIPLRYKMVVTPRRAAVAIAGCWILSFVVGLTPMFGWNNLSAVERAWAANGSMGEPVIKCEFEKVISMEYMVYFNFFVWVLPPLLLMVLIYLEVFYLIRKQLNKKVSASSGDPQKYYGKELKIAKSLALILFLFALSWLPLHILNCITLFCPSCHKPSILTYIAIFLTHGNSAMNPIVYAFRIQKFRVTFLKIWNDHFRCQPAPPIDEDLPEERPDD
# Method: as §1, §2
# Chain of adenosine 2a (P29274 whole entry): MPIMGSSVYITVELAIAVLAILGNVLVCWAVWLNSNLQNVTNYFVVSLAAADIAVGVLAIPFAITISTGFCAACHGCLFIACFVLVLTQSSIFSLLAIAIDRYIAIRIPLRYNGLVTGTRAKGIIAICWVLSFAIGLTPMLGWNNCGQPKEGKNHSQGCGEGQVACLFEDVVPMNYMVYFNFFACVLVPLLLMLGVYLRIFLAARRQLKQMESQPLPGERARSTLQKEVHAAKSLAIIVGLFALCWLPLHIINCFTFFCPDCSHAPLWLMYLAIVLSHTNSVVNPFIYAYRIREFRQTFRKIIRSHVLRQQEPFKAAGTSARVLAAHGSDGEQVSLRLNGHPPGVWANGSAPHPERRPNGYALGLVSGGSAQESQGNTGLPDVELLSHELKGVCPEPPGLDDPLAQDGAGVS
Molecule,A2a (EC50 values as a ratio of that of NECA) (adenosine 2a),A3 (EC50 values as a ratio of that of NECA) (adenosine 3),A1 (EC50 values as a ratio of that of NECA) (adenosine 1)
"CCn1cnc([C@H]2O[C@@H](n3cnc4c(NCC(c5ccccc5)c5ccccc5)nc(NCCc5cn(C)cn5)nc43)[C@H](O)[C@@H]2O)n1.O=CO.O=CO [Example 31, (2R,3R,4S,5R)-2-{6-(2,2-Diphenyl-ethylamino)-2-[2-(1-methyl-1H-imidazol-4-yl)-ethylamino]-purin-9-yl}-5-(1-ethyl-1H-[1,2,4]triazol-3-yl)-tetrahydro-furan-3,4-diol diformate]",8.79,>206,1753.5
"CCn1cnc([C@H]2O[C@@H](n3cnc4c(NCC(c5ccccc5)c5ccccc5)nc(NCCN5CCCCC5)nc43)[C@H](O)[C@@H]2O)n1.O=CO.O=CO [Example 32, (2R,3R,4S,5R)-2-[6-(2,2-Diphenyl-ethylamino)-2-(2-piperidin-1-yl-ethylamino)-purin-9-yl]-5-(1-ethyl-1H-[1,2,4]triazol-3-yl)-tetrahydro-furan-3,4-diol diformate]",11.85,>206,1217.4
"CCn1cnc([C@H]2O[C@@H](n3cnc4c(NCC(c5ccccc5)c5ccccc5)nc(NCCc5ccccn5)nc43)[C@H](O)[C@@H]2O)n1.O=CO.O=CO [Example 33, (2R,3R,4S,5R)-2-[6-(2,2-Diphenyl-ethylamino)-2-(2-pyridin-2-yl-ethylamino)-purin-9-yl]-5-(1-ethyl-1H-[1,2,4]triazol-3-yl)-tetrahydro-furan-3,4-diol diformate]",34.25,>206,4999.7
"CCn1cnc(C2OC(n3cnc4c(NCC(c5ccccc5)c5ccccc5)nc(NC5CCNC5)nc43)C(O)C2O)n1.O=CO.O=CO [Example 34, (2R,3R,4S,5R)-2-[6-(2,2-Diphenyl-ethylamino)-2-(pyrrolidin-3R-ylamino)-purin-9-yl]-5-(1-ethyl-1H-[1,2,4]triazol-3-yl)-tetrahydro-furan-3,4-diol diformate]",10.97,>231,1980.8
CCC(CC)Nc1nc(NCCc2cn(C)cn2)nc2c1ncn2[C@@H]1O[C@H](c2nnc(C3CC3)o2)[C@@H](O)[C@H]1O.O=CO.O=CO [Example 37],6.39,>173,581.9
CCC(CC)Nc1nc(NCCN2CCCCC2)nc2c1ncn2C1OC(c2nnc(C3CC3)o2)C(O)C1O.O=CO.O=CO (stereo not drawn) [Example 38],45.64,>173,365.6
"CCC(CC)Nc1nc(NC2CCCC2)nc2c1ncn2[C@@H]1O[C@H](c2nnc(C3CC3)o2)[C@@H](O)[C@H]1O.O=CO.O=CO [Example 39, (2R,3R,4S,5S)-2-[2-Cyclopentylamino-6-(1-ethyl-propylamino)-purin-9-yl]-5-(5-cyclopropyl-[1,3,4]oxadiazol-2-yl)-tetrahydro-furan-3,4-diol diformate]",129.5,>173,>=1067
"CCC(CC)Nc1nc(N[C@@H]2CCNC2)nc2c1ncn2[C@@H]1O[C@H](c2nnc(C3CC3)o2)[C@@H](O)[C@H]1O.O=CO.O=CO [Example 40, (2S,3S,4R,5R)-2-(5-Cyclopropyl-[1,3,4]oxadiazol-2-yl)-5-[6-(1-ethyl-propylamino)-2-(pyrrolidin-3R-ylamino)-purin-9-yl]-tetrahydro-furan-3,4-diol diformate]",56.86,>173,5084.2
"CCC(CC)Nc1nc(NCCC2CCCCC2)nc2c1ncn2C1OC(c2nnc(C3CC3)o2)C(O)C1O.O=CO.O=CO [Example 41, (2R,3R,4S,5S)-2-[2-(2-Cyclohexyl-ethylamino)-6-(1-ethyl-propylamino)-purin-9-yl]-5-(5-cyclopropyl-[1,3,4]oxadiazol-2-yl)-tetrahydro-furan-3,4-diol diformate]",74.29,>249,1921.5
"CCC(CC)Nc1nc(N[C@H](CO)C(C)C)nc2c1ncn2[C@@H]1O[C@H](c2nnc(C3CC3)o2)[C@@H](O)[C@H]1O.O=CO [Example 42, (2R,3R,4S,5S)-2-[6-(1-Ethyl-propylamino)-2-(1S-hydroxymethyl-2-methyl-propylamino)-purin-9-yl]-5-(5-cyclopropyl-[1,3,4]oxadiazol-2-yl)-tetrahydro-furan-3,4-diol formate]",41.04,>87,306.9
"CCc1cc([C@H]2O[C@@H](n3cnc4c(NC(CC)CC)nc(NCCN5CCCCC5)nc43)[C@H](O)[C@@H]2O)no1.O=CO.O=CO [Example 43, (2R,3R,4S,5R)-2-[6-(1-Ethyl-propylamino)-2-(2-piperidin-1-yl-ethylamino)-purin-9-yl]-5-(5-ethylisoxazol-3-yl)tetrahydrofuran-3,4-diol diformate]",3.25,>1124,21.82
"(2R,3R,4S,5R)-2-[6-(2,2-Diphenyl-ethylamino)-2-(1R-hydroxy-2-phenyl-ethylamino)-purin-9-yl]-5-(1-ethyl-1H-[1,2,4]triazol-3-yl)-tetrahydro-furan-3,4-diol formate [Example 35]",6.33,>240,5261.1
"(2R,3R,4S,5S)-2-[6-(2,2-Diphenyl-ethylamino)-2-(2-piperidin-1-yl-ethylamino)-purin-9-yl]-5-[5-methyl-[1,3,4]thiadiazol-2-yl)-tetrahydro-furan-3,4-diol diformate [Example 28]",37.3,>245,3371
